The inhibition is the percentage by which the read-out fell short of the control.

Here are results for 3 compounds from US20260297542A1, “HERBICIDE RESISTANT PLANTS” (SYNGENTA CROP PROTECTION AG, priority 2023, published 2026).

Common to all, as to assay: E. coli hemG growth inhibition by herbicide, AtPPO1 variant
Format in all cases: cell-based
Holding throughout (settings): read-out: percentage growth inhibition

The target of one experiment is T1, AtPPO1 E111D (Arabidopsis thaliana, UniProt P55826, E111D).
T1 construct: expressed in transfected cells; host or cells: E. coli BL21(DE3) hemG (hemG replaced by CmR), pET24a plasmid
T1 sequence (P55826 35-537 E111D): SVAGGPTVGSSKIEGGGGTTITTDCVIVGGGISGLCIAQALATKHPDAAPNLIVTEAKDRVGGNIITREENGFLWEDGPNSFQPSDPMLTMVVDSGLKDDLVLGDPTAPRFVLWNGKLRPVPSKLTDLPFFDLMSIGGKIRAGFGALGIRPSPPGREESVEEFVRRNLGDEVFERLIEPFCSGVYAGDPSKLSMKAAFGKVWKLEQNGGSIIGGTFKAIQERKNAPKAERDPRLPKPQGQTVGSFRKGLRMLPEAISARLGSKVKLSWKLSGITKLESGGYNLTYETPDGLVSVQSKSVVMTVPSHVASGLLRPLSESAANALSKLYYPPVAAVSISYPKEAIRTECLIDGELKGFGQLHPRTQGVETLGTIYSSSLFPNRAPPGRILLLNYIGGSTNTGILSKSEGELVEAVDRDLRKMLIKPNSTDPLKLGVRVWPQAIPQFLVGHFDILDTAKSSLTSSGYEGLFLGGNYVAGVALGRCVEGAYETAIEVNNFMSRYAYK
The source says:
(§1) A pET24a plasmid containing a DNA sequence encoding a variant of PPO1 derived from Arabidopsis thaliana (AtPPO1), codon-optimised for expression in E. coli and under control of a T7 promoter, was synthesised by Twist Bioscience (SEQ ID NO:3). This plasmid was used as the basis of a Site Saturation Variant Library (SSVL) that substituted the codons at 352 amino acid positions for codons that encoded one of the other 19 amino acids, or removed the codon altogether, resulting in a translation product with a deletion at that position.
(§2) The SSVL was batch-transformed by electroporation into an E. coli BL21(DE3) hemG strain with the hemG gene replaced by CmR conferring resistance to chloramphenicol and spread onto LA supplemented with 50 μg/mL kanamycin, 25 μg/mL chloramphenicol and 20 μg/mL hematin. Each batch consisted of all the plasmids that contained variants at two sites.
(§3) Colonies from batch transformations were inoculated into 500 μL of Terrific broth supplemented with 50 μg/mL kanamycin, 25 μg/mL chloramphenicol and 20 μg/mL hematin in 96-deepwell blocks. Cultures were grown for 24 hours at 37° C. with shaking at 250 rpm.
(§4) Overnight cultures were centrifuged and the cell pellets resuspended with 500 μL of Terrific broth. The resuspended cultures were used at a ratio of 1:100 to inoculate a fresh 96-deepwell block containing 500 μL of Terrific broth supplemented with 0.1 mM IPTG, 50 μg/mL kanamycin, 25 μg/mL chloramphenicol and 6.25 ppm of herbicide […] or E or 0.78 ppm herbicide B or DMSO. Assay cultures were grown for 24 hours at 37° C. with shaking at 250 rpm with the OD600 being measured at 24 hours post inoculation. Strains that grew in both DMSO and herbicide were determined to be herbicide tolerant with the percentage of growth inhibition being calculated as below: […]

Another experiment deals with T2, AtPPO1 V365M (Arabidopsis thaliana, UniProt P55826, V365M).
T2 construct: expressed in transfected cells; host or cells: E. coli BL21(DE3) hemG (pET24a, T7 promoter)
T2 sequence (P55826 35-537 V365M): T1 sequence (P55826 35-537 E111D) with D77E, V331M
From the text: as §1, §2, §3, §4

A further experiment addresses T3, AtPPO1 K173H (Arabidopsis thaliana, UniProt P55826, K173H).
T3 construct: expressed in transfected cells; host or cells: E. coli BL21(DE3) hemG (hemG replaced by CmR), pET24a plasmid
T3 sequence (P55826 35-537 K173H): T1 sequence (P55826 35-537 E111D) with D77E, K139H
From the text: as §1, §2, §3, §4

In a further experiment the target is T4, AtPPO1 V88I (Arabidopsis thaliana, UniProt P55826, V88I).
T4 construct: expressed in transfected cells; host or cells: E. coli BL21(DE3) hemG (hemG replaced by CmR), pET24a plasmid
T4 sequence (P55826 35-537 V88I): T1 sequence (P55826 35-537 E111D) with V54I, D77E
From the text: as §1, §2, §3, §4

Positions count from the first letter of the chain named.

Consider `C#CCN1C(=O)C(F)(F)Oc2cc(F)c(-n3c(=O)n(C)c(=S)n(C)c3=O)cc21` [Herbicide B, trifludimoxazin], for which the inhibition at 0.78 ppm at AtPPO1 E111D amounted to 23%; on AtPPO1 V365M it was 3%; at AtPPO1 K173H, 29%; on AtPPO1 V88I, 32%.
On to `CCOC(=O)[C@]1(C)CC(c2cc(-n3c(=O)n(C)c(=S)n(C)c3=O)c(F)cc2Cl)=NO1` [Herbicide D, ethyl (5S)-3-[2-chloro-5-(3,5-dimethyl-2,6-dioxo-4-thioxo-1,3,5-triazinan-1-yl)-4-fluoro-phenyl]-5-methyl-4H-isoxazole-5-carboxylate], for which the inhibition at 6.25 ppm at AtPPO1 E111D was 30%; on AtPPO1 V365M, 42%; at AtPPO1 K173H, 34%; on AtPPO1 V88I it was 43%.
As to `CC(C)N(C)S(=O)(=O)NC(=O)c1cc(-n2c(=O)cc(C(F)(F)F)n(C)c2=O)c(F)cc1Cl` [Herbicide E, saflufenacil], the inhibition at 6.25 ppm was 69% on AtPPO1 E111D, 22% on AtPPO1 V365M, 55% on AtPPO1 K173H and 66% on AtPPO1 V88I.
